# Literature values, collected in patent US20150017242A1 (Lupin Limited, priority 2012, published 2015).
# Like-named read-outs stand apart in the source and are kept apart here.
# Experiments:
# [1] = not given; remark: listed apart in the source
smiles,measurement,setting,value
"CCCCc1oc2ccc(NS(C)(=O)=O)cc2c1C(=O)c1ccc(OCCCN(CCCC)CCCC)cc1.Cl [Dronedarone, N-{2-butyl-3-[4-(3-dibutylaminopropoxy)benzoyl]benzofuran-5-yl}methane sulfonamide, hydrochloride]",behaviour at higher pH condition,,precipitates out
same,absolute oral bioavailability,[1]; administered with a high fat meal,approx. 15%
same,absolute oral bioavailability,[1]; fasting,4%
